# Assay results from patent publication US11827624B2, “Covalent immune recruiter compounds for immune cell recognition and associated uses” (McMaster University, priority 2020, dated 2023).
# Several values for one entry are separate records, joined by “and”; a condition that tells them apart may be missing. Identical values can stand only once.
# Tested on: humanized anti-DNP SPE7 (mmAb)
# Test: BLI covalent labeling kinetics assay on IgG Fc capture probes, mmAb
# Format: binding
# Protocol: Kinetic assays to characterize the second order rate constant (kinact/KI) describing the CIR+Ab labeling reaction involved incubating increasing concentrations of CIR 3 or CIR 5 with a fixed concentration (75 nM) of anti-DNP mmAb in solution, for different periods of time. PSMA binding to CIR-Ab complexes increases the total mass associated with the probe surface leading to signal increases (nm shift). CIR 3 (500 nM) and 75 nM of either mmAb or mAb (AcroBiosystems Catalog #DNP-M2) was reacted in 1× Kinetics Buffer (ForteBio) for four hours prior to the experiment. IgG Fc capture (ProG) probes from ForteBio were placed in 1× Kinetics Buffer for 20 minutes prior to the experiment for wetting. The experiment was conducted using an Octet Red96 (ForteBio), where the acquisition rate was set to 5 Hz and the temperature was held at 25° C. The plate shaker setting was 1000 RPM. A volume of 250 μL of each solution was loaded onto a black flat-bottom 96-well plate (Grenier). The experiment began by placing the ProG probes in 1×Kinetics Buffer for four minutes to establish a baseline. Next, the probes were placed into the CIR 3 and anti-DNP antibody reaction mixture to load the covalent complex (CIR-Ab) onto the probe. Next, the probes were placed in a solution of 5 mM DNP-glycine competitor in 1×Kinetics Buffer in order to disrupt any non-covalent or non-specific binding. The baseline was re-established by then placing the probes in 1× Kinetics Buffer for 0.5 minutes. To measure PSMA association, the probes were placed in a solution of 500 nM human PSMA protein in 1× Kinetics Buffer for 10 minutes. The probes were then placed in 1×Kinetics Buffer for 10 minutes to measure dissociation. The raw nm shift signal for the association and dissociation step obtained by the Octet Red96 was first baselined to the beginning of the association step (t=0 second) by subtracting the association signal at t=0 from the measured signal at each time point. The Kd was determined by fitting both the association and dissociation curves using the ‘association then dissociation’ binding model in GraphPad Prism 8. The experiment was repeated once for a total of two replicates.
# The specific labelling of an antibody by a CIR occurs via a two-step mechanism. In the first step, the CIR binds to the antibody via its ABD and forms a reversible complex. […] This second order rate constant was determined by monitoring covalent product (CIR-Ab) formation as a function of time via BLI using IgG Fc capture probes (note: a non-specific labeling reaction occurs independent of binding to the DNP binding site with any biological nucleophile and follows second order kinetics without saturation). […]
smiles,measurement,setting,value
O=C(O)CC[C@H](NC(=O)N[C@@H](CCCCNC(=O)NCCOCCOCCOCCOCCOCCOCCOCCOC(=O)n1cnc(CCNC(=O)CNc2ccc([N+](=O)[O-])cc2[N+](=O)[O-])c1)C(=O)O)C(=O)O [CIR 3],covalent reaction selectivity at excess CIR,"20-fold excess (1.5 μM), mAb and mmAb",high covalent reaction selectivity for the DNP hapten binding site on both mAb and mmAb was observed
same,Kinact/Kl ^c,mmAb,12000 ± 1000 M⁻¹ s⁻¹
same,Kinact^c,"mmAb, 75 nM antibody",4.0 × 10^−4 ± 0 s^−1
same,Ki,"mmAb, read-out: Kl ^c",~30 nM and 30 nM
